Data reported in US8771983B2, “Method and kit for expressing protein under regulation of the expression from repeated sequence formed by gene amplification, and transformant” (National University of Corporation Hiroshima University, priority 2004, dated 2014).

Test system: expression of d2EGFP in Tet-ON cells (COLO 320DM) transfected with pSFVdhfr/d2EGFP
Assay: Level of expression of d2EGFP by cell sorter in HSR and DM clones of Tet-ON cells with 5-aza (Example 7)
Format: cell-based, human
Details: 1 week, Doxycycline 1 μg/ml
Procedure: Fluorescence intensity of these cells were measured by using a cell sorter. The measurement was carried out by sorting 20,000 cells by setting living cells at a gate. The cell sorter used was made by Becton Dickinson, and operated under conditions as described in the manual attached thereto.
In this method for detecting the fluorescence intensity, detection limit was 1, and all fluorescence intensities of 1 or less would be detected as 1. In view of this, a product of a ratio (cell %) of cells of fluorescence intensities of 2 or more in all living cells (10,000 cells) and an average of the fluorescence intensities of the cells having fluorescence intensities of 2 or more was calculated out for each experimental plot. This product is referred to as “accumulated fluorescence intensity” hereinafter and in later Examples and shown in boxed letter in the figures.
By lipofection, the pTet-ON plasmid (Clontech Laboratories Inc.) having Tet-ON gene encoding a transcription activating factor (Tet-ON protein) for promoting TRE-promoter was transfected into human colon cancer COLO 320DM. Transformed cells (hereinafter referred to as “Tet-ON cells”) which stably expressed Tet-ON protein, were selected with Hygromycin.
Next, the pSFVdhfr/d2EGFP plasmid was transfected into the Tet-ON cells by lipofection. The cells thus obtained were selected with 5 μg/ml of Blasticidin for approximately 3 weeks, thereby obtaining a polyclonal population of the stable transformed cells.
The expression of d2EGFP was induced in the polyclonal population by activating TRE-promoter by adding 5 μg/ml of Doxycycline (Clontech Laboratories Inc.) in the medium. FIG. 9 illustrates a result of analysis of the level of the expression of d2EGFP in this case by using a cell sorter. In FIG. 9, the value in parenthesis is an average of fluorescence intensities (i.e., average fluorescence intensity), and boxed value is an accumulated fluorescence intensity. Based on the result of FIG. 9, it was confirmed that the polyclonal population was a population for expressing d2EGFP (average fluorescence intensity: 6.25, accumulated fluorescence intensity: 536).
From the polyclonal population, given 30 clones were obtained by a limiting dilution method that was carried out by inoculating a clone to 6 well plates with such a low cell concentration of 30 cells/ml, and incubating the plates for 10 days to 2 weeks thereby obtaining colonies thereon.
From among the clones, 4 clones having high levels of expression of d2EGFP (Clone 4, Clone 5, Clone 6, and Clone 9) were selected by fluorescence microscopic observation. Mitotic chromosome samples of the 4 clones were prepared. By FISH method, detection for a base sequence derived from the transfected pSFVdhfr/d2EGFP plasmid was carried out. The preparation of mitotic chromosome samples and the FISH method were carried out as described in Shimizu, N., Kanda, T., and Wahl, G. M. Selective capture of acentric fragments by micronuclei provides a rapid method of purifying extrachromosomally amplified DNA. Nature Genet., 12: 65-71, 1996.
For 4 clones, induction with Doxycycline (Clontech Laboratories Inc.; 1 μg/ml) was carried out and 5-aza (0 μM, 1 μM or 3 μM) was added in the medium. After 1 week culturing, the level of expression of d2EGFP in each clone was analyzed by using a cell sorter.

[1] = clone 4 (HSR), 1 μM of 5-aza in the medium
[2] = clone 4 (HSR), 3 μM of 5-aza in the medium
[3] = clone 5 (HSR), 1 μM of 5-aza in the medium
[4] = clone 5 (HSR), 3 μM of 5-aza in the medium
[5] = clone 6 (HSR), 1 μM of 5-aza in the medium
[6] = clone 6 (HSR), 3 μM of 5-aza in the medium
[7] = clone 9 (DM), 1 μM of 5-aza in the medium
[8] = clone 9 (DM), 3 μM of 5-aza in the medium

Which results are given for `Nc1ncn([C@H]2C[C@H](O)[C@@H](CO)O2)c(=O)n1` [5-aza, 5-aza-2′-deoxycytidine]?
accumulate fluorescence intensity [1]: 453; average fluorescence intensity [1]: 5.46; accumulate fluorescence intensity [2]: 2300; average fluorescence intensity [2]: 23.76; accumulate fluorescence intensity [3]: 126; average fluorescence intensity [3]: 2.23; accumulate fluorescence intensity [4]: 962; average fluorescence intensity [4]: 10.44; accumulate fluorescence intensity [5]: 111; average fluorescence intensity [5]: 2.09; accumulate fluorescence intensity [6]: 1000; average fluorescence intensity [6]: 10.87; accumulate fluorescence intensity [7]: 13200; average fluorescence intensity [7]: 131.86; accumulate fluorescence intensity [8]: 24900; average fluorescence intensity [8]: 248.60
